Measured values taken from paper PMC10892142, “Synthesis and In Vitro Antitumor Activity Evaluation of Gefitinib-1,2,3-Triazole Derivatives” (Molecules, 2024).

What was measured:
[1] = system: NCI-H1299 cells; test: CCK-8 assay, NCI-H1299 cells; format: cell-based, human; conditions: Homo sapiens, NCI-H1299; CCK-8, 48 h, mean ± SD, n = 3
Experimental: (§1) Next, cell viability was determined according to the instructions of the CCK-8 assay. Then, 10 μL CCK-8 solution was added to each well of the plate and incubated for 1–4 h in the incubator. […] The percentage of viable cells was measured using the following formula where three independent experiments were performed: [(A450sample − A450blank)/(A450control − A450blank)] × 100%.

[2] = system: A549 cells; test: CCK-8 assay, A549 cells; format: cell-based; conditions: Homo sapiens, A549; CCK-8, 48 h, mean ± SD, n = 3
Experimental: as §1

[3] = system: NCI-H1437 cells; test: CCK-8 assay, NCI-H1437 cells; format: cell-based; conditions: Homo sapiens, NCI-H1437; CCK-8, 48 h, mean ± SD, n = 3
Experimental: as §1

[4] = system: L02 cells; test: CCK-8 assay, normal hepatic cells L02; format: cell-based; conditions: Homo sapiens; for inhibition at 2 µM / inhibition at 4 µM / inhibition at 8 µM / inhibition at 16 µM / inhibition at 32 µM: L02, 48 h, L02 cells, read-out: Inhibition Rate %, 48 h; for IC50: normal hepatic cells L02, CCK-8, 48 h, mean ± SD, n = 3
Experimental: NCI-H1299, NCI-H1437 and L02 cells were cultured in a humidified incubator (Thermo Scientific™ Forma™ Direct Heat CO2 Incubator, Waltham, MA, USA) at 37 °C with 5% CO2 in RPMI-1640 supplemented with 10% fetal bovine serum (FBS) and 1% Penicillin Streptomycin. A549 cells were cultured in a humidified incubator at 37 °C with 5% CO2 in Ham’s F-12K supplemented with 10% FBS and 1% Penicillin Streptomycin.
(§2) Three types of lung cells and L02 cells were seeded into 96-well plate at a density of 5 × 10^3 cells per well in the logarithmic growth phase and cultured at 37 °C. The cells were then treated initially with different concentrations of compounds 4a–4n (0, 2, 4, 8, 16 and 32 μM) for an additional 48 h, with three replicate wells each. Next, cell viability was determined according to the instructions of the CCK-8 assay. Then, 10 μL CCK-8 solution was added to each well of the plate and incubated for 1–4 h in the incubator. The absorbance was measured at 450 nm using a microplate reader (Bio-Tek, Winooski, VT, USA). The percentage of viable cells was measured using the following formula where three independent experiments were performed: [(A450sample − A450blank)/(A450control − A450blank)] × 100%.

[5] = system: lung cancer cells; test: CCK-8 assay, lung cancer cells (line not specified); format: cell-based; conditions: read-out: inhibition rate on lung cancer cells
Experimental: as §2

[6] = system: H1299 cells; test: Annexin V-EGFP/PI flow cytometry for cell apoptosis; format: cell-based, human; conditions: 48 h
Experimental: H1299 cells were seeded in a 6-well plate at a density of 1 × 10^5 cells/well and incubated for 24 h. The following day, the medium was replaced with fresh medium containing 4b or 4c (2, 4 and 8 μM) and cells were incubated for an additional 48 h. Cell apoptosis was detected using Annexin V-EGFP/PI apoptosis detection kit (Beyotime Biotechnology, Shanghai, China) by flow cytometry. Subsequently, 5 μL of […] Annexin V and 10 μL of PI was added to the cell suspension, gently vortexed and incubated at room temperature in the dark for 20 min. Then, single-cell suspension was prepared followed by flow cytometry (BD Accuri™ C6 Plus, BD Biosciences, Franklin Lake, NJ, USA).

[7] = system: H1299 cells; test: DAPI staining for cell apoptosis; format: cell-based, human; conditions: H1299, 2, 4 and 8 μM, 48 h
Experimental: H1299 (1.5 × 10^4–2 × 10^4/well) cells were seeded in 24-well plates for 24 h and then treated with 4b or 4c at the concentrations of 2, 4 and 8 μM for 48 h. The cells were fixed for 30 min at room temperature in 4% paraformaldehyde and washed three times in PBS. Finally, every well was stained with DAPI (10 μg/mL) at room temperature for 30 min and washed at least three times in PBS. The fluorescence microscope was used to observe the morphological changes of cell nuclei.

[8] = system: H1299 cells; test: Wound healing (cell scratch) assay; format: cell-based, human; conditions: 24 h
Experimental: H1299 cells were seeded in a 6-well plate. When the cell confluency reached 95%, a wound line was scratched using a 200 μl pipette tip and then washed three times. Then, fresh medium containing 4b or 4c (2, 4 and 8 μM) was added and the plate was incubated at 37 °C with 5% CO2. All images were captured at 0 h and 24 h under an inverted microscope, and the quantification of scratches was analyzed using Image J (https://imagej.net/ij/, accessed on 4 January 2024).

[9] = system: H1299 cells; test: Transwell migration assay; format: cell-based, human; conditions: H1299, 2, 4 and 8 μM, 24 h, vs normal control
Experimental: Transwell assay was used to determine the migration ability of H1299 cells. Cells were starved in serum-free RPMI 1640 medium for 24 h, then detached and resuspended in serum-free RPMI 1640 medium. 5 × 10^5 cells/mL were inoculated into the upper chamber of a 24-well Transwell plate (Corning Inc., Corning, NY, USA), with a volume of 100 μL per well. Then, 100 μL serum-free medium containing 4b or 4c (2, 4 and 8 μM) was added to the upper chamber and the lower chamber was filled with 700 μL medium containing 20% FBS. After incubation for 24 h, H1299 cells on the upper membrane of the transwell were wiped off. The migrated cells were treated with 4% paraformaldehyde for 20 min, stained with 0.1% crystal violet for 20 min and washed three times with PBS. The number of H1299 cells that migrated to the underside of the membrane was counted under the inverted fluorescence microscope. Three randomly selected areas from each transwell were photographed and calculated using Image J.

[10] = system: H1299 cells; test: Colony formation assay; format: cell-based, human; conditions: seven days
Experimental: H1299 cells were seeded in six-well plates at a density of 500 cells per well and treated with 4b or 4c (1, 2 and 4 μM) for seven days. Then, cells were per-fixed with 4% paraformaldehyde for 30 min, stained with 0.1% crystal violet for 15 min and then washed with pure water. After destain with water, the plates were allowed to dry at room temperature overnight. Image J was used to count the number of clone formations.

[11] = system: Bcl-2/caspase3/PARP signaling pathway; test: Western blot, apoptosis proteins in H1299 cells; format: cell-based, human; conditions: H1299, 4, 8 and 16 μM, 48 h
Experimental: (§3) Firstly, H1299 cells were treated with the different concentrations of 4b and 4c at 4, 8 and 16 μM for 48 h. Then, cells were harvested using RIPA lysate (R0010, Solarbio, Beijing, China) and centrifuged at 12,000× g rpm for 15 min at 4 °C. Following that, the concentration of total protein was measured and taken from the supernatant. Protein was separated by 12% SDS-polyacrylamide gel electrophoresis and transferred to nitrocellulose filter membrane. After blocking in 5% milk for 2 h, the membranes were incubated with a specific primary antibody at 4 °C overnight. The next day, NC membranes were incubated for 1 h at room temperature with appropriate secondary antibodies and then protein bands were visualizing by chemiluminescence detection (ECL kit, Genview, Beijing, China).

[12] = system: MMP9; test: Western blot, MMP9 in H1299 cells; format: cell-based, human; conditions: H1299, with increasing drug concentration
Experimental: as §3

For `COc1cc2ncnc(Nc3cccc(-c4cn(Cc5ccccc5Br)nn4)c3)c2cc1OCCCN1CCOCC1` [Compound 4b, N-(3-(1-(2-Bromobenzyl)-1H-1,2,3-triazol-4-yl)phenyl)-7-methoxy-6-(3-morpholinopropoxy)quinazolin-4-amine], which IC50 [1] is on record?
Its IC50 is 4.42 ± 0.24 µM.

What about the IC50 [2] of the same compound?
Its IC50 is 3.94 ± 0.01 µM.

What about the IC50 [3] of the same compound?
The IC50 was 1.56 ± 0.06 µM.

What about the inhibition at 2 µM [4] of the same compound?
The inhibition at 2 µM was 9.09 ± 1%.

And the inhibition at 4 µM [4]?
The inhibition at 4 µM was less than 20%.

And the inhibition at 8 µM [4]?
Its inhibition at 8 µM is 29.8 ± 1.27%.

And the inhibition at 16 µM [4]?
The inhibition at 16 µM was 39.1 ± 2.18%.

And the inhibition at 32 µM [4]?
The inhibition at 32 µM was 64.8 ± 1.84%.

What about the IC50 [4] of the same compound?
Its IC50 is 20.2 ± 1.26 µM.

What about the inhibition at 4 µM [5] of the same compound?
The inhibition at 4 µM was 50%.

And the “total apoptotic cell proportion” value ([6]; H1299, 2 μM)?
The value was 20.43 ± 1.72%.

And the “total apoptotic cell proportion” value ([6]; H1299, 4 μM)?
The value was 43.2 ± 2.4%.

What about the “total apoptotic cell proportion” value ([6]; H1299, 8 μM) of the same compound?
The value was 77.4 ± 3.97%.

What about the “nuclear morphology (DAPI staining)” value [7] of the same compound?
The value was “typical apoptotic features”.

What about the migration closure rate ([8]; H1299, 2 μM) of the same compound?
The migration closure rate was 72.59 ± 2.12%.

What about the migration closure rate ([8]; H1299, 4 μM) of the same compound?
The migration closure rate was 62.42 ± 5.50%.

What about the migration closure rate ([8]; H1299, 8 μM) of the same compound?
Its migration closure rate is 49.79 ± 2.22%.

What about the “number of cells crossing the microporous membrane” value [9] of the same compound?
The value was “significant reduction”.

What about the “formation of H1299 cell colonies” value ([10]; 1 μM) of the same compound?
The value was “significantly inhibit”.

And the “formation of H1299 cell colonies” value ([10]; 4 μM)?
The value was “almost completely inhibited”.

What about the “expression level of Bcl-2 protein” value [11] of the same compound?
Its value is “concentration-dependent decrease”.

What about the “expression level of PARP protein” value [11] of the same compound?
Its value is “concentration-dependent decrease”.

What about the “expression level of caspase 3 protein” value [11] of the same compound?
Its value is “concentration-dependent decrease”.

What about the “expression level of caspase 9 protein” value [11] of the same compound?
The value was “concentration-dependent decrease”.

What about the “expression level of cleaved PARP protein” value [11] of the same compound?
Its value is “increased”.

What about the “expression level of cleaved caspase 3 protein” value [11] of the same compound?
Its value is “increased”.

And the MMP9 protein expression [12]?
Its MMP9 protein expression is “decrease in MMP9 protein expression”.

And the melting point?
The melting point was 165 to 166 °C.

Which results are given for `COc1cc2ncnc(Nc3cccc(-c4cn(Cc5cccc(F)c5)nn4)c3)c2cc1OCCCN1CCOCC1` [Compound 4c, N-(3-(1-(3-Fluorobenzyl)-1H-1,2,3-triazol-4-yl)phenyl)-7-methoxy-6-(3-morpholinopropoxy)quinazolin-4-amine]?
IC50 [1]: 4.6 ± 0.18 µM; IC50 [2]: 4 ± 0.08 µM; IC50 [3]: 3.51 ± 0.05 µM; inhibition at 2 µM [4]: 7.18 ± 1.22%; inhibition at 4 µM [4]: < 20%; inhibition at 8 µM [4]: 27.6 ± 2.79%; inhibition at 16 µM [4]: 30.6 ± 1.93%; inhibition at 32 µM [4]: 56.1 ± 5.77%; IC50 [4]: 29.4 ± 5.53 µM; inhibition at 4 µM [5]: 50%; total apoptotic cell proportion ([6]; H1299, 2 μM): 16.37 ± 0.57%; total apoptotic cell proportion ([6]; H1299, 4 μM): 31.2 ± 2.36%; total apoptotic cell proportion ([6]; H1299, 8 μM): 51.77 ± 6.74%; nuclear morphology (DAPI staining) [7]: typical apoptotic features; migration closure rate ([8]; H1299, 2 μM): 53.26 ± 4.51%; migration closure rate ([8]; H1299, 4 μM): 40.04 ± 8.02%; migration closure rate ([8]; H1299, 8 μM): 17.90 ± 3.46%; number of cells crossing the microporous membrane [9]: significant reduction; formation of H1299 cell colonies ([10]; 1 μM): significantly inhibit; formation of H1299 cell colonies ([10]; 4 μM): almost completely inhibited; expression level of Bcl-2 protein [11]: concentration-dependent decrease; expression level of PARP protein [11]: concentration-dependent decrease; expression level of caspase 3 protein [11]: concentration-dependent decrease; expression level of caspase 9 protein [11]: concentration-dependent decrease; expression level of cleaved PARP protein [11]: increased; expression level of cleaved caspase 3 protein [11]: increased; MMP9 protein expression [12]: decrease in MMP9 protein expression; melting point: 202 to 203 °C
